# Results from patent US5834461A, “Tricyclic benzazepine vasopressin antagonists” (American Cyanamid Company, priority 1997, dated 1998).
# Tests used:
# vasopressin V2 = assay: Vasopressin V2 Antagonist Activity in Conscious Hydrated Rats (diuretic effect); assay type: in vivo, normal Sprague-Dawley rats; settings: AVP 0.4 μg/kg i.p.
# Method: Conscious hydrated rats are treated with compounds under study from 0.1 to 100 mg/kg orally or vehicle. Two to four rats are used for each compound. One hour later, arginine vasopressin (AVP, antidiuretic hormore, ADH) dissolved in peanut oil is administered at 0.4 μg/kg intraperitoneally. Two rats in each test would not receive arginine vasopressin but only the vehicle (peanut oil) to serve as water-loading control. Twenty minutes later each rat is given 30 mL/kg of deionized water orally by gavage and is placed individually in a metabolic cage equipped with a funnel and a graduated glass cylinder to collect urine for four hours. Urine volume is measured and osmolality analyzed by use of a Fiske One-Ten osmometer (Fiske Assoc., Norwood, Mass., USA). Urinary sodium, potassium, and chloride are analyzed by use of ion-specific electrodes in a Beckman E3 (Electrolyte 3) Analyzer. In the following results, […] and decreased osmolality relative to AVP-control indicates activity.
# vasopressin V1 = assay: Vasopressin V1 Antagonist Activity in Conscious Rats (vasopressin vasopressor response); assay type: in vivo, rat (spontaneously hypertensive rats); set-up: Average Change: unit not given here
# Method: Conscious rats are restrained in a supine position with elastic tape. The area at the base of the tail is locally anesthetized by subcutaneous infiltration with 2% procaine (0.2 ml). Using aseptic technique the ventral caudal tail artery is isolated and a cannula made of PE 10 and 20 (heat-fused) tubing is passed into the lower abdominal aorta. The cannula is secured, heparinized (1000 i.u./cc), sealed and the wound closed with one or two stitches of Dexon 4-0. The caudal vein is also cannulated in the same manner for intravenous drug administration. The duration of the surgery is approximately 5 minutes. Additional local anesthesia (2% procaine or lidocaine) is provided as needed.
# The animals are placed in plastic restraining cages in an upright position. The cannula is attached to a Statham P23Db pressure transducer and pulsatile blood pressure is recorded. […] The vasopressin injections are repeated 30, 60, 90, 120, 180, 240 and 300 min. later. Percentage of antagonism by the compound is calculated using the pre-drug vasopressin vasopressor response as 100%.
# [1] = target: vasopressin V1 receptor (rat liver plasma membranes) (Rattus norvegicus, UniProt P30560); assay: Binding Assay to Rat Hepatic V1 Receptors; settings: rat hepatic V1
# [2] = target: T1, rat kidney medullary V2 receptors (Rattus norvegicus, UniProt Q00788); assay: Binding Assay to Rat Kidney Medullary V2 Receptors; settings: rat kidney medullary V2
# T1 construct: Medullary tissues from rat kidneys are dissected out; from tissue; host or cells: rat kidney medulla membranes
# Procedure, shortened: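 Competition binding: [3H]AVP at 0.8 nM, test compounds from 50% DMSO, and membranes from rat kidney medulla, left 120 min on the bench. Filtration then liquid scintillation counting measured bound ligand; 1.0 μM unlabeled ligand set non-specific binding.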
# [3] = 10 mg/kg i.v., VAS 0.01 i.u./kg, 30 min
# [4] = 10 mg/kg i.v., VAS 0.02 i.u./kg, 30 min
# [5] = 20 mg/kg i.v., VAS 0.01 i.u./kg, 60 min
# [6] = 20 mg/kg i.v., VAS 0.01 i.u./kg, 90 min
# [7] = 20 mg/kg i.v., VAS 0.01 i.u./kg, 120 min
# [8] = 20 mg/kg i.v., VAS 0.01 i.u./kg, 180 min
# [9] = 20 mg/kg i.v., VAS 0.01 i.u./kg, 240 min
# [10] = 20 mg/kg i.v., VAS 0.01 i.u./kg, 300 min
# [11] = 20 mg/kg i.v., VAS 0.02 i.u./kg, 60 min
# [12] = 20 mg/kg i.v., VAS 0.02 i.u./kg, 90 min
# [13] = 20 mg/kg i.v., VAS 0.02 i.u./kg, 120 min
# [14] = 20 mg/kg i.v., VAS 0.02 i.u./kg, 180 min
# [15] = 20 mg/kg i.v., VAS 0.02 i.u./kg, 240 min
# [16] = 20 mg/kg i.v., VAS 0.02 i.u./kg, 300 min
# [17] = 10 mg/kg i.v., VAS 0.01 i.u./kg, 60 min
# [18] = 10 mg/kg i.v., VAS 0.01 i.u./kg, 90 min
# [19] = 10 mg/kg i.v., VAS 0.01 i.u./kg, 120 min
# [20] = 10 mg/kg i.v., VAS 0.01 i.u./kg, 180 min
# [21] = 10 mg/kg i.v., VAS 0.01 i.u./kg, 240 min
# [22] = 10 mg/kg i.v., VAS 0.01 i.u./kg, 300 min
# [23] = 10 mg/kg i.v., VAS 0.02 i.u./kg, 60 min
# [24] = 10 mg/kg i.v., VAS 0.02 i.u./kg, 90 min
# [25] = 10 mg/kg i.v., VAS 0.02 i.u./kg, 120 min
# [26] = 10 mg/kg i.v., VAS 0.02 i.u./kg, 180 min
# [27] = 10 mg/kg i.v., VAS 0.02 i.u./kg, 240 min
# [28] = 10 mg/kg i.v., VAS 0.02 i.u./kg, 300 min
# Chain of vasopressin V1 receptor (rat liver plasma membranes) (P30560 whole entry): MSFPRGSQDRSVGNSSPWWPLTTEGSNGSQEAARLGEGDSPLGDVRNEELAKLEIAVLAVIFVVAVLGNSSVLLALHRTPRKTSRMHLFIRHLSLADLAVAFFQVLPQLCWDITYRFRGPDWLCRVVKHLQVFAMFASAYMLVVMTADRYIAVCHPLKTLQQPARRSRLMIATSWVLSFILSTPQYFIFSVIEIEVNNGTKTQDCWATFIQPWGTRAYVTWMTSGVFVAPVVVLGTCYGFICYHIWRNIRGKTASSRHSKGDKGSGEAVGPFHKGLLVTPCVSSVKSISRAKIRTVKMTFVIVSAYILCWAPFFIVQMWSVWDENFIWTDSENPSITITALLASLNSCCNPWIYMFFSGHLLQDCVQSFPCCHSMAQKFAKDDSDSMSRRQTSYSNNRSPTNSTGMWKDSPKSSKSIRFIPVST
# T1 sequence (Q00788 whole entry): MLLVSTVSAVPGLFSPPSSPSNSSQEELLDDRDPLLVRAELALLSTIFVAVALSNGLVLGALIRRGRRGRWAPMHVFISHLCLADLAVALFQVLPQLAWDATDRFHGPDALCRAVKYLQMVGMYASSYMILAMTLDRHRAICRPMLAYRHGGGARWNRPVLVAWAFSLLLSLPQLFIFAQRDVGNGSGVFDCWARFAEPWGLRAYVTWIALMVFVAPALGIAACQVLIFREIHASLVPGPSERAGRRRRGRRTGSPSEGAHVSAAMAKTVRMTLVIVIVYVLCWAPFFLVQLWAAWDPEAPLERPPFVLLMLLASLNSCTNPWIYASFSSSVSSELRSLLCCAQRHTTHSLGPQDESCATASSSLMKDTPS
structure (smiles),measurement,setting,value
"CSc1ccccc1C(=O)Nc1ccc(C(=O)N2Cc3ccccc3Cc3ccccc32)cc1 [Example 61, N-[4-[(6.11-Dihydro-5H-dibenz[b.e]azepin-5-yl)-carbonyl]phenyl]-2-(methylthio)benzamide]",Osmolality,vasopressin V2; 10 mg/kg orally,975 mOsm/kg
same,Urine Volume,vasopressin V2; 10 mg/kg orally,9.3 ml/4 hrs.
same,Average Change,vasopressin V1; [3],21
same,Inhibition,vasopressin V1; [3],26%
same,Average Change,vasopressin V1; [4],32.5
same,Inhibition,vasopressin V1; [4],37%
same,Average Change,vasopressin V1; [5],13
same,Inhibition,vasopressin V1; [5],54%
same,Average Change,vasopressin V1; [6],8
same,Inhibition,vasopressin V1; [6],72%
same,Average Change,vasopressin V1; [7],12
same,Inhibition,vasopressin V1; [7],58%
same,Average Change,vasopressin V1; [8],15.5
same,Inhibition,vasopressin V1; [8],46%
same,Average Change,vasopressin V1; [9],12
same,Inhibition,vasopressin V1; [9],58%
same,Average Change,vasopressin V1; [10],15.5
same,Inhibition,vasopressin V1; [10],46%
same,Average Change,vasopressin V1; [11],14.5
same,Inhibition,vasopressin V1; [11],72%
same,Average Change,vasopressin V1; [12],16.5
same,Inhibition,vasopressin V1; [12],68%
same,Average Change,vasopressin V1; [13],20
same,Inhibition,vasopressin V1; [13],61%
same,Average Change,vasopressin V1; [14],17.5
same,Inhibition,vasopressin V1; [14],66%
same,Average Change,vasopressin V1; [15],23
same,Inhibition,vasopressin V1; [15],55%
same,Average Change,vasopressin V1; [16],24
same,Inhibition,vasopressin V1; [16],53%
same,IC50,[1],52 nM
same,IC50,[2],68 nM
Cc1ccccc1C(=O)Nc1ccc(C(=O)N2Cc3ccccc3C(C)c3ccccc32)cc1 (centres unmarked) [Example 22],Osmolality,vasopressin V2; 30 mg/kg orally,738 mOsm/kg
same,Urine Volume,vasopressin V2; 30 mg/kg orally,10.2 ml/4 hrs.
same,Average Change,vasopressin V1; [3],8.5
same,Inhibition,vasopressin V1; [3],60%
same,Average Change,vasopressin V1; [17],11
same,Inhibition,vasopressin V1; [17],49%
same,Average Change,vasopressin V1; [18],14
same,Inhibition,vasopressin V1; [18],35%
same,Average Change,vasopressin V1; [19],17.5
same,Inhibition,vasopressin V1; [19],19%
same,Average Change,vasopressin V1; [20],20
same,Inhibition,vasopressin V1; [20],7%
same,Average Change,vasopressin V1; [21],28
same,Inhibition,vasopressin V1; [21],-30%
same,Average Change,vasopressin V1; [22],30
same,Inhibition,vasopressin V1; [22],-40%
same,Average Change,vasopressin V1; [4],18.5
same,Inhibition,vasopressin V1; [4],56%
same,Average Change,vasopressin V1; [23],25
same,Inhibition,vasopressin V1; [23],40%
same,Average Change,vasopressin V1; [24],13
same,Inhibition,vasopressin V1; [24],69%
same,Average Change,vasopressin V1; [25],30
same,Inhibition,vasopressin V1; [25],29%
same,Average Change,vasopressin V1; [26],36
same,Inhibition,vasopressin V1; [26],14%
same,Average Change,vasopressin V1; [27],48
same,Inhibition,vasopressin V1; [27],-14%
same,Average Change,vasopressin V1; [28],52.5
same,Inhibition,vasopressin V1; [28],-25%
same,IC50,[1],320 nM
same,IC50,[2],140 nM
Cc1ccccc1C(=O)Nc1ccc(C(=O)N2Cc3ccccc3Cc3cc(Cl)ccc32)cc1 [Example 136],Osmolality,vasopressin V2; 30 mg/kg orally,306 mOsm/kg
same,Urine Volume,vasopressin V2; 30 mg/kg orally,19 ml/4 hrs.
same,MAX % Inhibition,vasopressin V1; 10 mg/kg i.v.,81%
same,Time of max % inhibition,vasopressin V1; 10 mg/kg i.v.,30 min
same,IC50,[1],16 nM
same,IC50,[2],27 nM
"Cc1ccccc1C(=O)N(C)c1ccc(C(=O)N2Cc3ccccc3Cc3ccccc32)cc1 [Example 167, N-[4-[ (6,11-Dihydro-5H-dibenz[b,e]azepin-5-yl)carbonyl]phenyl]-N-methyl-2-methylbenzamide]",Osmolality,vasopressin V2; 30 mg/kg orally,1544 mOsm/kg
same,Urine Volume,vasopressin V2; 30 mg/kg orally,2 ml/4 hrs.
same,MAX % Inhibition,vasopressin V1; 10 mg/kg i.v.,70%
same,Time of max % inhibition,vasopressin V1; 10 mg/kg i.v.,180 min
same,IC50,[1],510 nM
same,IC50,[2],430 nM
"O=C(Nc1ccc(C(=O)N2Cc3ccccc3Cc3ccccc32)cc1)c1ccccc1Cl [Example 14, N-[4-[(6,11-Dihydro-5H-dibenz[b,e]azepin-5-yl)-carbonyl]phenyl]-2-chlorobenzamide]",Osmolality,vasopressin V2; 30 mg/kg orally,739 mOsm/kg
same,Urine Volume,vasopressin V2; 30 mg/kg orally,13.1 ml/4 hrs.
same,Average Change,vasopressin V1; [3],11
same,Inhibition,vasopressin V1; [3],51%
same,Average Change,vasopressin V1; [17],12
same,Inhibition,vasopressin V1; [17],47%
same,Average Change,vasopressin V1; [18],13.5
same,Inhibition,vasopressin V1; [18],40%
same,Average Change,vasopressin V1; [19],16
same,Inhibition,vasopressin V1; [19],29%
same,Average Change,vasopressin V1; [20],21.5
same,Inhibition,vasopressin V1; [20],4%
same,Average Change,vasopressin V1; [21],26.5
same,Inhibition,vasopressin V1; [21],-18%
same,Average Change,vasopressin V1; [22],24.5
same,Inhibition,vasopressin V1; [22],-9%
same,Average Change,vasopressin V1; [4],23
same,Inhibition,vasopressin V1; [4],56%
same,Average Change,vasopressin V1; [23],22
same,Inhibition,vasopressin V1; [23],58%
same,Average Change,vasopressin V1; [24],29.5
same,Inhibition,vasopressin V1; [24],43%
same,Average Change,vasopressin V1; [25],23.5
same,Inhibition,vasopressin V1; [25],55%
same,Average Change,vasopressin V1; [26],30.5
same,Inhibition,vasopressin V1; [26],41%
same,Average Change,vasopressin V1; [27],32
same,Inhibition,vasopressin V1; [27],38%
same,Average Change,vasopressin V1; [28],33
same,Inhibition,vasopressin V1; [28],37%
same,IC50,[1],57 nM
same,IC50,[2],66 nM
"Cc1ccccc1NC(=O)c1ccc(C(=O)N2Cc3ccccc3Cc3ccccc32)cc1 [Example 123, 4-[(6,11-Dihydro-5H-dibenz[b,e]azepin-5-yl)-carbonyl]-N-(2-methylphenyl)benzamide]",Osmolality,vasopressin V2; 10 mg/kg orally,1125 mOsm/kg
same,Urine Volume,vasopressin V2; 10 mg/kg orally,5.8 ml/4 hrs.
same,Average Change,vasopressin V1; [3],17.5
same,Inhibition,vasopressin V1; [3],0%
same,Average Change,vasopressin V1; [4],20
same,Inhibition,vasopressin V1; [4],39%
same,Average Change,vasopressin V1; [5],6
same,Inhibition,vasopressin V1; [5],66%
same,Average Change,vasopressin V1; [6],6
same,Inhibition,vasopressin V1; [6],66%
same,Average Change,vasopressin V1; [7],5
same,Inhibition,vasopressin V1; [7],71%
same,Average Change,vasopressin V1; [8],4
same,Inhibition,vasopressin V1; [8],77%
same,Average Change,vasopressin V1; [9],8
same,Inhibition,vasopressin V1; [9],54%
same,Average Change,vasopressin V1; [10],8
same,Inhibition,vasopressin V1; [10],54%
same,Average Change,vasopressin V1; [11],6
same,Inhibition,vasopressin V1; [11],82%
same,Average Change,vasopressin V1; [12],7
same,Inhibition,vasopressin V1; [12],79%
same,Average Change,vasopressin V1; [13],4.5
same,Inhibition,vasopressin V1; [13],86%
same,Average Change,vasopressin V1; [14],6.5
same,Inhibition,vasopressin V1; [14],80%
same,Average Change,vasopressin V1; [15],6.5
same,Inhibition,vasopressin V1; [15],80%
same,Average Change,vasopressin V1; [16],8
same,Inhibition,vasopressin V1; [16],76%
same,IC50,[1],43 nM
same,IC50,[2],190 nM
"O=C(Nc1ccc(C(=O)N2Cc3ccccc3Cc3ccccc32)cc1)c1c(Cl)cccc1Cl [Example 252, N-[4-[(6,11-Dihydro-5H-dibenz[b,e]azepin-5-yl)-carbonyl]phenyl]-2,6-dichlorobenzamide]",Osmolality,vasopressin V2; 10 mg/kg orally,790 mOsm/kg
same,Urine Volume,vasopressin V2; 10 mg/kg orally,7.5 ml/4 hrs.
same,MAX % Inhibition,vasopressin V1; 30 mg/kg i.v.,75%
same,Time of max % inhibition,vasopressin V1; 30 mg/kg i.v.,120 min
same,IC50,[1],260 nM
same,IC50,[2],260 nM
"Cc1cccc(C(=O)Nc2ccc(C(=O)N3Cc4ccccc4Cc4cc(Cl)ccc43)cc2)c1C [Example 138, N-[4-[(2-Chloro-6,11-dihydro-5H-dibenz[b,e]azepin-5-yl)carbonyl]phenyl]2,3-dimethylbenzamide]",Osmolality,vasopressin V2; 30 mg/kg orally,380 mOsm/kg
same,Urine Volume,vasopressin V2; 30 mg/kg orally,13.8 ml/4 hrs.
same,MAX % Inhibition,vasopressin V1; 10 mg/kg i.v.,88%
same,Time of max % inhibition,vasopressin V1; 10 mg/kg i.v.,60 min
same,IC50,[1],46 nM
same,IC50,[2],51 nM
